The results in this text go back to patent US20210300943A1, “OGA INHIBITOR COMPOUNDS” (Janssen Pharmaceutica NV, priority 2018, published 2021).

A word on the Emax: it is the greatest response seen or fitted, relative to the assay's reference.

Experiment [1] deals with T1, recombinant human Meningioma Expressed Antigen 5 (MGEA5), also referred to as O-GlcNAcase (OGA) (Homo sapiens, UniProt O60502).
T1 construct: Full length OGA enzyme was purchased at OnGene (cat #TP322411); purchased OnGene (so in the source)
T1 sequence (O60502 1-916): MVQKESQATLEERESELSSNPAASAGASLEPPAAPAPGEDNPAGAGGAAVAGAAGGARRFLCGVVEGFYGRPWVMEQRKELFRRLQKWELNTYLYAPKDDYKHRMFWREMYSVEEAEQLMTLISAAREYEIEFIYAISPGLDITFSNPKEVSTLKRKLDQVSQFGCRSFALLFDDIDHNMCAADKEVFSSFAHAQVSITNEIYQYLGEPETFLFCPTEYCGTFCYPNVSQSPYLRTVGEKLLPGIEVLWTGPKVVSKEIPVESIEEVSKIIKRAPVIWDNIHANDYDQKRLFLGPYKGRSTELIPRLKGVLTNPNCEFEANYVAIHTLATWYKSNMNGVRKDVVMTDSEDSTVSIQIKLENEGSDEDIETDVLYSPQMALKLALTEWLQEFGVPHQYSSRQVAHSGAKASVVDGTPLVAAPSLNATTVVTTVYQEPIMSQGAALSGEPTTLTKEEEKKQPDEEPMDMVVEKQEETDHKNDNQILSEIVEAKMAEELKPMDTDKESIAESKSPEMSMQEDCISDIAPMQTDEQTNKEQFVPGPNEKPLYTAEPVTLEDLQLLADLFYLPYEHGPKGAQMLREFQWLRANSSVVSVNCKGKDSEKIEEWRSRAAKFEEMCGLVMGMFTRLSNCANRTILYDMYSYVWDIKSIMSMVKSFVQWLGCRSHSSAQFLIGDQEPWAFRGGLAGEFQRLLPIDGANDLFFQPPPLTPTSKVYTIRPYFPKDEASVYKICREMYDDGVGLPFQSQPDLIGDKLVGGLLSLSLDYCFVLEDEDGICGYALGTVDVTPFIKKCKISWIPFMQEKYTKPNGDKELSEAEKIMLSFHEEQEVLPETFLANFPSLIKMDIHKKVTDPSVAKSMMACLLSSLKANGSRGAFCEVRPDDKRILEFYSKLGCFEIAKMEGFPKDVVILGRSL
The experiment is described as follows: OGA biochemical assay (inhibition of FM-GlcNAc hydrolysis, fluorescence). The conditions noted are these: for Emax: maximal effect, read-out: Enzymatic Emax (%); for IC50: read-out: Enzymatic hOGA, pIC50 (converted). The procedure, abridged:
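Full-length recombinant OGA (2 nM) pre-incubated with compound 60 min at room temperature, then FM-GlcNAc (100 µM final) added in citrate/phosphate buffer pH 7.2 with 0.005% Tween-20. After 6 h at room temperature, stopped with carbonate pH 11.0; fluorescein read at 485/538 nm; IC50 and Hill coefficient from curve fit.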

The target in the next experiment is T2, OGA (Homo sapiens, UniProt O60502).
T2 construct: endogenous in cells; host or cells: HEK293 cells inducible for P301L mutant human Tau (2N4R)
T2 sequence (O60502 1-916): T1 sequence (O60502 1-916)
Put plainly: OGA cellular assay (ICC detection of O-GlcNAcylated proteins in HEK293 cells inducible for P301L mutant human Tau). The format is cell-based. The conditions noted are these: for Emax: HEK293, HEK293 cells inducible for P301L mutant human Tau, maximal effect, Thiamet G 200 uM as maximum; for EC50: HEK293 cells inducible for P301L mutant human Tau, 6 hours incubation, read-out: Cellular hOGA, pEC50 (converted). Put shortly:
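HEK293 cells inducible for P301L Tau, in low-glucose assay medium, treated 6 h with compound at 0.2% DMSO. O-GlcNAcylated proteins detected by CTD110.6 immunostaining, imaged at 488 nm with Hoechst nuclear counts for toxicity. IC50 from non-linear regression, 200 uM Thiamet G as maximum.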

Each structure is given as a SMILES string.

Regarding `Cc1cc([C@H]2CCCN(C(C)c3nc4c(cc3F)OCCO4)C2)cc(C)n1` (single isomer, unassigned) [Product 164], in experiment [1], the Emax came to 100% and the IC50 was 3.16 nM. Moreover, on OGA, the Emax came out at 86% and the EC50 is 6.31 nM.
`Cc1cc(NCC2CCCN(C(C)c3cc4c(cc3F)OCCO4)C2)cc(C(F)(F)F)n1` (stereo not drawn) [Product 99]: in experiment [1], the Emax is 105% and the IC50 is 5.25 nM. In addition, on OGA, the Emax came to 65% and the EC50 is 25.1 nM.
The corresponding values for `Cc1cc(OC[C@H]2CCCN(C(C)c3nc4c(cc3F)CCO4)C2)cc(C)n1` (mixture of isomers) [Product 178] are 95%, 2.51 nM, 104% and 2.51 nM.
The corresponding values for `Cc1cc(OC2CCCN(C(C)c3ccc4c(n3)OCCO4)C2)cc(C)n1` (stereo not drawn) [Product 136] are 101%, 3.98 nM, 60% and 631 nM.
As to `Cc1cc(NC[C@H]2CCCN(C(C)c3ccc4c(n3)OCCO4)C2)nc(C)n1` (stereo partly drawn) [Product 157], in experiment [1], the Emax worked out at 101% and the IC50 is 5.01 nM. For the same molecule, at OGA, the Emax came out at 83% and the EC50 was 15.8 nM.
The corresponding values for `Cc1cc([C@@H]2CCCN(C(C)c3nc4c(cc3F)OCCO4)C2)cc(C)n1` (single isomer, unassigned) [Product 165] are 100%, 63.1 nM, 80% and 100 nM.
For the molecule `COc1cc(OC[C@H]2CCCN(C(C)c3ccc4c(n3)OCCO4)C2)cc(C)n1` (single isomer, unassigned) [Product 184], in experiment [1], the Emax was 87% and the IC50 was 2000 nM. In addition, on OGA, the Emax was -17% and the EC50 was above 1000 nM.
With `COc1cc(NCC2CCCN(C(C)c3ccc4c(n3)OCCO4)C2)cc(C)n1` (stereo not drawn) [Product 23], in experiment [1], the Emax turned out to be 100% and the IC50 is 10 nM. Moreover, on OGA, the Emax turned out to be 81% and the EC50 was 7.94 nM.
The corresponding values for `COc1cc(CN[C@H]2CCCN(C(C)c3ccc4c(n3)OCCO4)C2)cc(C)n1` (stereo partly drawn) [Product 198] are 94%, 39.8 nM, 82% and 398 nM.
In the case of `Cc1cc(OC[C@H]2CCCN(C(C)c3nc4c(cc3F)OCCO4)C2)cc(C)n1` (stereo partly drawn) [Product 152], in experiment [1], the Emax is 102% and the IC50 was 3.98 nM. Further, at OGA, the Emax turned out to be 94% and the EC50 was 3.98 nM.
For the molecule `Cc1cc(C2CCCN(C(C)c3nc4c(cc3F)OCCO4)C2)cc(C(F)F)n1` (stereo not drawn) [Product 187], in experiment [1], the Emax came to 96% and the IC50 was 7.94 nM. Also, at OGA, the Emax worked out at 92% and the EC50 is 12.6 nM.
Turning to `Cc1cc(OC2CCCN(C(C)c3cnc4c(c3)OCCN4)C2)cc(C)n1` (stereo not drawn) [Product 14], in experiment [1], the Emax turned out to be 101% and the IC50 is 5.01 nM. At OGA, the Emax was determined as 60% and the EC50 was 631 nM.
As to `Cc1cc(C2CCCN(C(C)c3ccc4c(n3)OCCO4)C2)cc(C)n1` (stereo not drawn) [Product 1], in experiment [1], the Emax is 102% and the IC50 is 20 nM. Further, at OGA, the Emax was 77% and the EC50 was 100 nM.
On the same counts, the results for `COc1cc(OC2CCCN(C(C)c3ccc4c(n3)OCCO4)C2)cc(C)n1` (stereo not drawn) [Product 18] are 100%, 50.1 nM, 57% and 794 nM.
The corresponding values for `Cc1cc([C@H]2CCCN(C(C)c3ccc4c(n3)OCCO4)C2)cc(C)n1` (single isomer, unassigned) [Product 149] are 100%, 10 nM, 93% and 31.6 nM.
The corresponding values for `Cc1cc(C[C@H]2CCCN(C(C)c3ccc4c(n3)OCCO4)C2)cc(OC(F)(F)F)n1` (mixture of isomers) [Product 67] are 102%, 7.94 nM, 89% and 79.4 nM.
Consider `Cc1cc(CO[C@H]2CCCN(C(C)c3nc4c(cc3F)OCCO4)C2)cc(C)n1` (stereo partly drawn) [Product 168], for which, in experiment [1], the Emax stood at 99% and the IC50 was 3.16 nM. Also, at OGA, the Emax worked out at 69% and the EC50 is 31.6 nM.
The corresponding values for `Cc1cc(OC[C@@H]2CCCN(C(C)c3cnc4c(c3)OCCN4)C2)cc(C)n1` (stereo partly drawn) [Product 145] are 99%, 251 nM, 35% and above 1000 nM.
On the same counts, the results for `Cc1cc(C[C@H]2CCCN([C@@H](C)c3ccc4c(n3)OCCO4)C2)cc(C)n1` (single isomer, unassigned) [Product 46] are 101%, 3.16 nM, 90% and 15.8 nM.
On the same counts, the results for `Cc1cc(OC[C@H]2CCCN(C(C)c3nc4c(cc3F)CCO4)C2)cc(C)n1` (single isomer, unassigned) [Product 179] are 100%, 200 nM, 72% and 251 nM.
Take `COc1cc(C2CCCN(C(C)c3cc4c(cc3F)OCCO4)C2)cc(C(F)(F)F)n1` (stereo not drawn) [Product 11]: in experiment [1], the Emax amounted to 103% and the IC50 is 20 nM. On OGA, the Emax was 70% and the EC50 was 316 nM.
On the same counts, the results for `Cc1cnc(OC2CCCN(C(C)c3ccc4c(n3)OCCO4)C2)c(C)n1` (stereo not drawn) [Product 133] are 103%, 15.8 nM, 62% and 501 nM.
With `COc1cc(NC[C@H]2CCCN(C(C)c3nc4c(cc3F)OCCO4)C2)cc(C)n1` (stereo partly drawn) [Product 182], in experiment [1], the Emax was found to be 99% and the IC50 was 3.98 nM. Moreover, on OGA, the Emax was 106% and the EC50 was 1.58 nM.
As for `Cc1cc(NCC2CCCN(C(C)c3ccc4c(n3)OCCO4)C2)cc(C)n1` (stereo not drawn) [Product 21], in experiment [1], the Emax amounted to 103% and the IC50 is 5.01 nM. In addition, on OGA, the Emax came to 88% and the EC50 is 15.8 nM.
The corresponding values for `Cc1cc(C[C@H]2CCCN(C(C)c3cnc4c(c3)OCCN4C)C2)cc(C)n1` (mixture of isomers) [Product 56] are 102%, 15.8 nM, 78% and 316 nM.
The corresponding values for `Cc1cc(C[C@H]2CCCN(C(C)c3ccc4c(n3)OCC(=O)N4)C2)cc(C)n1` (mixture of isomers) [Product 59] are 102%, 126 nM, 23% and above 1000 nM.
For `CC(c1nc2c(cc1F)OCCO2)N1CCC[C@H](NCc2ccc(F)cc2)C1` (stereo partly drawn) [Product 196], in experiment [1], the Emax worked out at 95% and the IC50 is 39.8 nM. Also, on OGA, the Emax turned out to be 70% and the EC50 was 251 nM.
As to `Cc1cc(C2CCCN(C(C)c3ccc4c(n3)OCCO4)C2)cc(C(F)F)n1` (stereo not drawn) [Product 188], in experiment [1], the Emax stood at 102% and the IC50 is 10 nM. Besides, at OGA, the Emax was found to be 79% and the EC50 is 100 nM.
`Cc1cc(CC2CN(C(C)c3ccc4c(n3)OCCO4)CCC2O)cc(C)n1` (stereo not drawn) [Product 173]: in experiment [1], the Emax worked out at 99% and the IC50 was 63.1 nM. Moreover, at OGA, the Emax turned out to be 64% and the EC50 was 631 nM.
As for `Cc1cc(C2CCCN(C(C)c3ccc4c(n3)OCCO4)C2)cc(C(F)(F)F)n1` (stereo not drawn) [Product 8], in experiment [1], the Emax stood at 100% and the IC50 was 15.8 nM. Also, on OGA, the Emax was 86% and the EC50 was 200 nM.
